Source: patent publication US9044474B2, “Compositions and methods for increasing drug efficacy in cancer” (The Ohio State University, priority 2010, dated 2015)
Counter-ions that a name gives are not always drawn.

What was measured:
Jurkat cell line = test: eIF2α phosphorylation immunoblot in cell lines (control); format: cell-based
Method: (§1) Proteins extracted from whole cell lysates (50 μg/lane) were separated on polyacrylamide gels and transferred on nitrocellulose membrane. Antibodies used for immunoblots included LC3, IRE1α, TRAF2, PI3K III, ATG4C, ATG5-12, UVRAG, Beclin-1 (Cell Signaling, Boston, Mass.), GAPDH, Nrf2, ASK1, ULK1 (Santa Cruz Biotechnology), and Bif-1, ATG14-Barkor (Sigma-Aldrich, St Louis, Mo.). Species-appropriate secondary antibodies were obtained from BioRad Laboratories (Hercules, Calif.). Following antibody incubations, proteins were detected using a chemiluminescent substrate (BioRad Laboratories). For co-immunoprecipitations, TrueBlot beads (eBiosciences, San Diego, Calif.) and One-hour IP Western kit (GenScript, Piscataway, N.J.) were used according to manufacturer protocols. Quantification was done using FluorChem Q (Alpha Innotech, San Leandro Calif.).

p62 = p62 immunoblot in samples from CLL patients treated with flavopiridol; format: in vivo, human; conditions: samples at 4.5 hours post flavopiridol infusion
Method: In this trial, CLL cells were collected pre- and post-therapy 4.5 hours, day 1 (n=16). By confocal fluorescence microscopy, both increased autophagosome formation (P=0.0011) and fusion with lysosomes is observed (FIG. 3F). […] The level of autophagy, as assessed by LC3 fluorescence intensity, was overall greater in non-responders versus responders in both pre- and post-treatment samples (P=0.018); however, the increase in intensity at 4.5 hours post- vs. pre-treatment was only slightly higher for non-responders compared to responders (fold change of 2.51 vs. 1.82, P=0.3445). […] Collectively, these studies provide evidence that our in vitro observations are relevant to the clinical setting.
as §1, with “For co-immunoprecipitations, TrueBlot beads (eBiosciences, San Diego, Calif.) and One-hour IP Western kit (GenScript, Piscataway, N.J.) were used according to manufacturer protocols.” left out

JNK1 and p38MAPK = test: Immunoblot of phosphorylated JNK1 and p38MAPK in samples from CLL patients treated with flavopiridol; format: in vivo, human; conditions: samples 4.5 hours following flavopiridol infusion
Method: as §1

CLL patients = CLL patients treated with flavopiridol; cited from earlier work
CLL cells = test: Cell viability by annexin V/PI flow cytometry in CLL cells
Method: Percent of live cells was determined by staining with annexin V-fluorescein isothiocyanate and propidium iodide (PI). After exposure to agents, cells were washed with PBS and stained in 1× binding buffer (BD Biosciences, Franklin Lakes, N.J.). Cell viability was assessed by flow cytometry using a Beckman-Coulter Cytomics FC500 cytometer. Data were analyzed with the CXP Cytometer software package (Beckman-Coulter). A total of 10,000 cells were counted for each sample. The cells treated with flavopiridol were washed after 4 hours with PBS and re-suspended in regular growth medium (RPMI 1640) supplemented with 10% human serum and antibiotics for the remainder of the incubation time. […] For all the other conditions, cells were incubated with the respective drugs for 24 hours continuously.
CLL cells were suspended in buffer V (Amaxa kit, Lonza, Allendale, N.J.) and nucleofection was performed using program U016 (5 μg siRNA and 1×10^7 cells per cuvette). Scrambled siRNA and siRNAs to ATG5, ATG7 and ASK1 were purchased from Sigma-Aldrich. Cells were immediately suspended in warm, complete media supplemented with 10% human serum, and RNA was extracted after 36 hours. For CDK1 and CDK5, siRNAs were purchased from Applied Biosystems (Carlsbad, Calif.). Transfections were done using 5 nM siRNA per cuvette, and RNA was harvested at 48 hours.

Q: Which results are given for CN1CC[C@H](c2c(O)cc(O)c3c(=O)cc(-c4ccccc4Cl)oc23)[C@H](O)C1 [flavopiridol, (cis-5,7-dihydroxy-2-(2-chlorophenyl)-8-[4-(3-hydroxy-1-methyl)-piperidin-yl]-1-benzopyran-4-one)hydrochloride]?
A: eIF2α phosphorylation (Jurkat cell line): dramatic EIF2α phosphorylation; p62 protein expression (p62): a decrease in protein expression; CLL patients with JNK1 and p38MAPK phosphorylation (JNK1 and p38MAPK): five of ten; CLL patients in whom drug resistance is usually observed (CLL patients): approximately 40%; effect of ASK1 siRNA vs scrambled siRNA on sensitivity to the agent (CLL cells; CLL cells n=5, flavopiridol 2 μM): significantly (P=0.005) more resistant; effect of chloroquine addition on cell death caused by the agent (CLL cells; CLL cells, annexin/PI negative, CQ 0.5 μM, flavopiridol 4 hours then washed, CQ continuous 24 hours): significantly enhances the cytotoxicity; effect of ATG5/ATG7 siRNA vs scrambled siRNA on cytotoxicity of the agent (CLL cells; CLL cells, viability at 24 hours, thapsigargin 1 μM, flavopiridol 2 μM): significantly increased
